“Also recorded” adds a separate entry of the source. Like-named read-outs stand apart in the source and are kept apart here.

The values that follow come from patent publication US20190328784A1, “CHIMERIC ANTIGEN RECEPTORS (CARS) SPECIFIC FOR MUC1 AND METHODS FOR THEIR USE” (Poseida Therapeutics, Inc., priority 2016, published 2019).

The test system of data set [1] is cells. The conditions noted are these: cited from earlier work.
For data set [2], the system named is cells. The data set can be described thus: AP1903 amount needed in vitro for effective signaling of cells. Type of data set: cell-based. The conditions noted are these: conversion with 1600 Da MW. The protocol: The fixed dose of AP1903 for injection used, for example, may be 0.4 mg/kg intravenously infused over 2 hours. The amount of AP1903 needed in vitro for effective signaling of cells is 10-100 nM (1600 Da MW). This equates to 16-160 μg/L or ^˜0.016-1.6 μg/kg (1.6-160 μg/kg). Doses up to 1 mg/kg were well-tolerated in the Phase I study of AP1903 described above. Therefore, 0.4 mg/kg may be a safe and effective dose of AP1903 for this Phase I study in combination with the therapeutic cells.

Data set [3] deals with Human pan T-cells. Kind of data set: iC9 safety switch test: modified T cells incubated 24 hours with AP1903, viability by 7-AAD flow cytometry. Type of data set: cell-based. The conditions noted are these: 24 hours incubation, 0-1000 nM tested. The source says:
FIG. 7 is a series of flow cytometry plots depicting the abundance of cells moving from an area of live cells (the gated lower right quadrant) to an area populated by apoptotic cells (the upper left quadrant) as a function of increasing dosage of the induction agent (AP1903) in cells modified to express a therapeutic agent (a CARTyrin) alone or in combination with an inducible caspase polypeptide of the disclosure (encoded by an iC9 construct (also known as a “safety switch”) introduced into cells by a piggyBac (PB) transposase) at day 12 post nucleofection. […]
FIG. 9 is a pair of graphs depicting a quantification of the aggregated results shown either in FIG. 7 (left graph) or FIG. 8 (right graph). […]
To test the iC9 safety switch, each of the four modified T cells were incubated for 24 hours with 0, 0.1 nM, 1 nM, 10 nM, 100 nM or 1000 nM AP1903 (an induction agent for […]). Viability was assessed by flow cytometry using 7-aminoactinomycin D (7-AAD), a fluorescent intercalator, as a marker for cells undergoing apoptosis.
Background: A flow cytometer gives signals particle by particle.

The conditions of data set [4]: cited from earlier work.
In data set [5] the test system is MUC1 expressed on activated T cells. The data set can be described thus: MUC1-scFv CAR function/epitope assay (degranulation, CD107a+ cells). It is filed as cell-based, human. The protocol: (§1) The results of a functional assay are provided in the graph wherein MUC1-C scFv-CAR function was measured by the extent of degranulation of the cells in each condition contacted with the MUC1-scFv along the X-axis. Degranulation was measured as the percentage of total cells that were CD107a-positive (CD107a+). The chart summarizes the relative activity of each MUC1-C scFv-CAR during the functional assay.
As an initial study, MUC1 expression was assessed in different cell types (see FIG. 13). Cells included in this study: K562 cells (immortalized human chronic myelogenous leukemia cells), Raji cells (human hematopoietic cell line used as a model of cancer), Raji cells modified to express MUC1-C, activated T cells and RPMI8226 cells (human peripheral blood B cell plasmacytoma/myeloma cell line). MUC1 expression in each of these cells was assessed by staining with an anti-MUC1-N antibody.

For data set [6], the target named is T1, cleaved, non-shed MUC1-C (Homo sapiens, UniProt P15941).
T1 construct: expressed in transfected cells; host or cells: K562, Raji and RPMI8226 cells modified to express MUC1-C
T1 sequence (P15941 with tags, fused parts or gaps): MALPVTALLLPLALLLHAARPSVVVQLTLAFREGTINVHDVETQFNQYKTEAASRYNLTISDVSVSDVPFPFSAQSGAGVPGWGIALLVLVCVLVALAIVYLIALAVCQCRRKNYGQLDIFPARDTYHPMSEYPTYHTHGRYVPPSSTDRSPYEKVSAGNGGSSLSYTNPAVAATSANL
The data set is described as above. It is filed as cell-based. The conditions noted are these: cells that received the extracellular MUC1-C construct. The protocol:
(§2) FIG. 14 is a graph depicting a MUC1-scFv CAR function assay. […] MUC1-scFv function is measured by the extent of degranulation of the cells in each condition contacted with the MUC1-scFv along the X-axis. Degranulation was measured as the percentage of total cells that were CD107a-positive (CD107a+).
as §1
(§3) The function of each of the MUC1-scFv CARs described in this example was assayed in K562 cells, Raji cells and RPMI8226 cells (“8226”) cells in either unmodified conditions or following transfection with MUC1 constructs (either full-length or MUC1-C) to generate modified K562 cells, modified Raji cells and modified 8226 cells. Function of each of the MUC1-scFv CARs was measured by the CAR's ability to degranulate each cell type. Degranulation was measured by the percent of total cells that express […] (percentage of […] cells).
(§4) The F1C-HL, M1A-LH and K2B-HL MUC1-scFv CARs were further tested to determine epitope binding.

Data set [7] addresses T2, full length MUC1 (Homo sapiens, UniProt P15941).
T2 construct: expressed in transfected cells; host or cells: K562, Raji and RPMI8226 cells
Described as above. It is filed as cell-based. The conditions noted are these: cells expressing full-length MUC1. The protocol: as §2, §1, §3, §4

Data set [8] concerns unmodified cells. The description is as above. Type of data set: cell-based, human. As to the method: as §3, §4

T2 sequence (P15941 24-1255): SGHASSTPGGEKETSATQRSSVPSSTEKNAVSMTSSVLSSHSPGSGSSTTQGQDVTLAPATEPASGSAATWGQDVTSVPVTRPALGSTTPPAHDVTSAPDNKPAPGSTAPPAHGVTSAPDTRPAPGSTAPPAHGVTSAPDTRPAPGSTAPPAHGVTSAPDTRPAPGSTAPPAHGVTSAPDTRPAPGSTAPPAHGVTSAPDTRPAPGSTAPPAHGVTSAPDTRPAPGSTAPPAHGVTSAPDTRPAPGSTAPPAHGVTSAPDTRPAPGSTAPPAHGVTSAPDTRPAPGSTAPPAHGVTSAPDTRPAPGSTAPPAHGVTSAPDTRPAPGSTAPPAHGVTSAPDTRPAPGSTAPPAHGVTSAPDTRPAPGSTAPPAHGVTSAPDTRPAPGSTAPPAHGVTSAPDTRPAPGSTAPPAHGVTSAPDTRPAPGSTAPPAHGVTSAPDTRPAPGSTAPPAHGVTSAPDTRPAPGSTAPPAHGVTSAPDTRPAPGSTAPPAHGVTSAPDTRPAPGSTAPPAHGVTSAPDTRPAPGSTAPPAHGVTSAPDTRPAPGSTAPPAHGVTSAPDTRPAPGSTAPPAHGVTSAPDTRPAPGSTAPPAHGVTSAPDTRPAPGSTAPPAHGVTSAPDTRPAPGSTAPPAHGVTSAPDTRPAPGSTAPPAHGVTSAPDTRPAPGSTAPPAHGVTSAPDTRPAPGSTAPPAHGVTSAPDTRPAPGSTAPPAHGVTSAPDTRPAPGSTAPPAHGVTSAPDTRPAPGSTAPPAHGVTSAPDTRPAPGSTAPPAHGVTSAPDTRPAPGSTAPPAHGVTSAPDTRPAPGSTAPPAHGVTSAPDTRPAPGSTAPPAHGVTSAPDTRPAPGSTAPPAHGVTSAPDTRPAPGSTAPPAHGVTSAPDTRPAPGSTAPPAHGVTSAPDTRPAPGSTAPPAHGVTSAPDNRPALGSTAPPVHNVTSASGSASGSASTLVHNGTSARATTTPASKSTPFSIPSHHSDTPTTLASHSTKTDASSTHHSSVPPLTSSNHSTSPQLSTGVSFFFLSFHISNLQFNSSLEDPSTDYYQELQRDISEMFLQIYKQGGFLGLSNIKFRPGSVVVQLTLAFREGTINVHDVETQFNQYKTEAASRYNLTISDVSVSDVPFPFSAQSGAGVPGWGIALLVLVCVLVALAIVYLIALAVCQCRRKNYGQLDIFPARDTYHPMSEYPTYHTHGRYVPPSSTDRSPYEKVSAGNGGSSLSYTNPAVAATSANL

On to `CC[C@H](C(=O)N1CCCC[C@H]1C(=O)O[C@H](CCc1ccc(OC)c(OC)c1)c1cccc(OCC(=O)NCCNC(=O)COc2cccc([C@@H](CCc3ccc(OC)c(OC)c3)OC(=O)[C@@H]3CCCCN3C(=O)[C@@H](CC)c3cc(OC)c(OC)c(OC)c3)c2)c1)c1cc(OC)c(OC)c(OC)c1` (relative stereo) [AP1903, 2-Piperidinecarboxylic acid, 1-[(2S)-1-oxo-2-(3,4,5-trimethoxyphenyl)butyl]−, 1,2-ethanediylbis[imino(2-oxo-2,1-ethanediyl)oxy-3,1-phenylene[(1R)-3-(3,4-dimethoxyphenyl)propylidene]]ester, [2S-[1(R*),2R*[S*[S*[1 (R*),2R*]]]]]-(9C1)], for which the “amount needed in vitro for effective signaling of cells” value in data set [1] is 10 to 100 nM. The “amount needed for effective signaling of cells, converted” value in data set [2] was in the range of 16 to 160 µg/L. For the same molecule, in data set [2], the “amount needed for effective signaling of cells, converted to dose” value is 0.016 to 1.6 µg/kg. Moreover, the “concentration at which AP1903 induces apoptosis (lowest of the study)” value in data set [3] is recorded as ≤ 0.1 nM. For the same molecule, the “AP1903 plasma levels versus dose” value in data set [4] (0.01-1.0 mg/kg dose range) is “directly proportional to dose”. Further, the “plasma levels as % of maximal concentration” value is recorded as “approximately 18%” in data set [4] (0.5 hours post-dose), ~7% in data set [4] (2 hours post-dose) and ~1% in data set [4] (10 hours post-dose). For the same molecule, in data set [4] (Phase I study of AP1903), the well-tolerated doses entry is reported as “up to 1 mg/kg”. For the same molecule, the “mean Cmax” value in data set [4] (single doses 0.01-1.0 mg/kg infused IV over 2 hours, 24 healthy volunteers, plasma) is 10 to 1275 ng/mL.

B1: F1C-HL: MUC1 scFv CAR; single chain antibody SEQ ID NO: 22 (protein)
scFv: QITLKESGPGILQPSQTLSLTCSFSGFSLSTSGMGVSWIRQPSGKGLEWLSHIYWDDDKRYNPSLKSRLSISKDTSRNQVFLKITSVDTADTATYYCAPGVSSWFPYWGPGTLVTVSAGGGGSGGGGSGGGGSSIVMTQTPKFLPVSAGDRVTVTCKASQSVGNYVAWYQQKPGQSPKLLIYFASNRYSGVPDRFTGSGSGTDFTFTISSVQVEDLAVYFCQQHYIFPYTFGSGTKLEIK
modifications: left off: a dimerising Fc or GST
Regarding B1, the “CAR reactivity (degranulation)” value in data set [5] is recorded as “including that expressed on activated T cells”. Further, the “CAR reactivity / binding (degranulation)” value in data set [6] was “binds”; in data set [7] it was “reacts against full length MUC1; also recorded: binds”. Further, in data set [8], the “CAR binding (degranulation)” value is given as “binds”.

B2: K2B-HL: MUC1 scFv CAR; single chain antibody SEQ ID NO: 10 (protein)
scFv: QVQLKESGPGLVAPSQSLSMTCTVSGFSLTTYGVHWVRQPPGKGLEWLVVIWSDGSTTYNSPLKSRLSISRDNSKSQVFLKMNSLQADDTAIYYCAKNYLGSLDYWGQGTSVTVSSGGGGSGGGGSGGGGSDVVLTQTPLSLPVSLGDQASISCRSSQSLVHNNGDTYLHWYLQKPGQSPKLLIYKVSNRFSGVPDRFSGSGSGTDFTFKISRVEAEDLGVYFCSQTTHVPLTFGAGTKLELK
modifications: left off: a dimerising Fc or GST
Turning to B2, the “CAR reactivity / binding (degranulation)” value is given as “only reacts against cleaved, non-shed MUC1-C; also recorded: specifically binds” in data set [6] and “not full length MUC1” in data set [7].
